# Test results: article PMC5472784, “Pyrazinamide and derivatives block ethylene biosynthesis by inhibiting ACC oxidase” (Nature Communications, 2017)
# Where two headings read alike, the source gives them in different places.
# Assays:
# [1] = system: ethylene production of Arabidopsis seedlings; assay: Measurement of ethylene production of seedlings (GC-FID); type: in vivo, Arabidopsis thaliana; conditions: for ethylene production in Arabidopsis seedlings: Supplementary Fig. 10
# Description: Ethylene production was determined as follows: 30 3-day-old etiolated or 5-day-old green seedlings of Col-0, eto1-2 or other mutants were selected randomly and sealed in a 30 ml vial containing 3 ml liquid MS medium supplemented with indicated treatments. The vial was sealed with a rubber stopper for 24 h at 22 °C prior to ethylene sampling. A 250 μl sample of the headspace gas was withdrawn using a gas-tight syringe from each chamber through the septum stopper, and injected into a gas chromatograph (Agilent 6890NGC, Agilent Technologies, USA) that was equipped with a HP-PLOTQ column (40 m × 530 μm × 40 μm) and a flame ionization detector (FID)[44]. Separations were carried out at 60 °C using N2 as the carrier gas. The area of the ethylene peak was integrated with Agilent Chemstation and results were expressed as the average relative ethylene production (%) of each treatment.
# [2] = system: Arabidopsis PSB-D suspension cultured cells; assay: Ethylene production of suspension cultured cells; type: cell-based, Arabidopsis thaliana
# [3] = target: T1, AtACO2 (Arabidopsis thaliana, UniProt Q41931); assay: ACO enzymatic activity assay and kinetic analysis (ethylene by GC-FID); type: biochemical
# T1 sequence (Q41931 1-303): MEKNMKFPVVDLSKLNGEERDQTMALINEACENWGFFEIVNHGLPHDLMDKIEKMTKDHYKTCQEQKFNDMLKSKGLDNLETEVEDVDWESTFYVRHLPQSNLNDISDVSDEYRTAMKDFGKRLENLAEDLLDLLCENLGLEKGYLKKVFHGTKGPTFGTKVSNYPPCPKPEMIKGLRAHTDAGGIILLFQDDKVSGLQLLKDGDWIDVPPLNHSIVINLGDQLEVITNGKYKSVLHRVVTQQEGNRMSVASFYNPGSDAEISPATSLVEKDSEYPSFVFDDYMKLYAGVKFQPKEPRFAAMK
# [4] = target: T1, AtACO2; assay: Isothermal titration calorimetry; type: binding; conditions: ITC, 25 °C, read-out: dissociation constant (KD), AtACO2
# Description: (§1) ITC experiments were performed using a MicroCal iTC200 (GE Healthcare) at 25 °C. Small molecules and proteins were in the same buffer containing 25 mM Bis–Tris (pH 6.0), 150 mM NaCl, 0.1 mM ZnCl2 (or 0.2 mM FeSO4 for POA and AtACO2). The concentration of small molecules in the syringe was 1 mM, and the concentration of proteins in the cell was 90 μM. Data were analysed with a one-site model using Origin 7.0 (OriginLab).
# [5] = target: T1, AtACO2; assay: Fragmentation (stability) of purified AtACO2; conditions: 200 μM POA, 30 °C
# Description: Purified AtACO2 was incubated with or without 200 μM POA at 30 °C in a buffer containing 50 mM MOPS, pH 7.2, 10% glycerol (v/v), 5 mM ascorbic acid, 20 mM NaHCO3, 0.02 mM FeSO4, 1 mM ACC and 1 mM DTT. At the indicated time point, the reaction was terminated by the addition of SDS-PAGE loading buffer followed by boiling. Fragmentation of AtACO2 was visualized on a SDS-PAGE gel.
# [6] = system: dioxygenase for auxin oxidation (DAO); assay: Isothermal titration calorimetry; type: binding, Arabidopsis thaliana; conditions: ITC
# Description: as §1
# [7] = target: T2, AtACO5 (Arabidopsis thaliana, UniProt Q0WPW4); assay: ACO enzymatic activity assay, kinetic analysis; type: biochemical; conditions: varying ACC, 200 μM POA, unit inferred
# T2 sequence (Q0WPW4 1-307): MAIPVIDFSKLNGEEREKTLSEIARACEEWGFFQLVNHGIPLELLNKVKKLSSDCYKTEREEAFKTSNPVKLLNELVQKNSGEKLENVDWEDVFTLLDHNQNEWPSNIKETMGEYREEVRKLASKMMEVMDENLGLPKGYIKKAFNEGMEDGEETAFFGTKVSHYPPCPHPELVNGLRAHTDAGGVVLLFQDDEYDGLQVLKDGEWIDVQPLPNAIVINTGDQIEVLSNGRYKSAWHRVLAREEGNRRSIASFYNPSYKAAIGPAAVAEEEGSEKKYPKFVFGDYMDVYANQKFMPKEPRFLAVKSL
# Description: (§2) The activity was performed following previously published protocol. The reaction mixture contains 50 mM MOPS, pH 7.4, 10% glycerol (v/v), 5 mM ascorbic acid, 20 mM NaHCO3, 0.02 mM FeSO4, 1 mM DTT, and different amounts of ACC and PZA/POA as indicated. The reaction was initiated by the addition of 5 μg ACO protein and immediately sealed with a rubber stopper. After incubation at 30 °C for 30 min with shaking, 100 μl of gas product was withdrawn by syringe from the headspace of the vial and injected into the GC-FID. The area of the ethylene peak was integrated with Agilent Chemstation and results were analysed using the program GraphPad Prism (version 5.01; GraphPad Software Inc., San Diego, CA, USA). The initial velocities were plotted against starting ACC concentrations in a double-reciprocal manner and the kinetic parameters were deduced.
# [8] = target: T3, AtACO1 (Arabidopsis thaliana, UniProt Q9ZUN4); assay: ACO enzymatic activity assay, kinetic analysis; type: biochemical; conditions: varying ACC, 200 μM POA, unit inferred
# T3 sequence (Q9ZUN4 1-310): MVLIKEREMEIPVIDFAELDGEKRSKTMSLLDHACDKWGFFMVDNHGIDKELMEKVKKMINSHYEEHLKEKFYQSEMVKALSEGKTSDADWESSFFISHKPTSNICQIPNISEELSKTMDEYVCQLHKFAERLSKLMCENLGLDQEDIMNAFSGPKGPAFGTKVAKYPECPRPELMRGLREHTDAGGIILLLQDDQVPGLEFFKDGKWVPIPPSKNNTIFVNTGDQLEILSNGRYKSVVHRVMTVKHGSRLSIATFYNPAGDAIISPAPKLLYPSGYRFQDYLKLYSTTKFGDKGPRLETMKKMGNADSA
# Description: as §2
# [9] = target: AtACO4 (Arabidopsis thaliana, UniProt Q06588); assay: ACO enzymatic activity assay, kinetic analysis; type: biochemical; conditions: varying ACC, 200 μM POA, unit inferred
# Chain of AtACO4 (Q06588 whole entry): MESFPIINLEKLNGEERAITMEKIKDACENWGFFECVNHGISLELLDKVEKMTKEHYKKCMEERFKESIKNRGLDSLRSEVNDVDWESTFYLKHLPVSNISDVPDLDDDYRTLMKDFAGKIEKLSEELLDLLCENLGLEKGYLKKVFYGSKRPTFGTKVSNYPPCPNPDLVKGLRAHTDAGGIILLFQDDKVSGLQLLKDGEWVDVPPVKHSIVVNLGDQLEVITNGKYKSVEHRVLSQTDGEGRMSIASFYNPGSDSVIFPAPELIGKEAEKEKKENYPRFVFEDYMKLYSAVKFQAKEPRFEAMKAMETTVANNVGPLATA
# Description: as §2
# [10] = target: AtACO3 (Arabidopsis thaliana, UniProt O65378); assay: ACO enzymatic activity assay, kinetic analysis; type: biochemical; conditions: varying ACC, 200 μM POA, unit inferred
# Chain of AtACO3 (O65378 whole entry): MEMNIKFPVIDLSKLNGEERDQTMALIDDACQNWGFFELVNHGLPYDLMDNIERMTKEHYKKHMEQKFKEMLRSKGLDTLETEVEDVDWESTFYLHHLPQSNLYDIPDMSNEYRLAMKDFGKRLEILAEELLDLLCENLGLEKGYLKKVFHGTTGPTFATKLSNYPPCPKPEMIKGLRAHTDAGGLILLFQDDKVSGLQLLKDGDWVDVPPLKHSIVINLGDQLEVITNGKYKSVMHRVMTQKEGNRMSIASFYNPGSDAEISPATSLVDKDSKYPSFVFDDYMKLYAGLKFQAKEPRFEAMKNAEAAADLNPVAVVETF
# Description: as §2
# [11] = system: Arabidopsis etiolated seedlings (Col-0, eto1-2, ctr1-1, ein2-5); assay: Ethylene response phenotype of 3-day-old etiolated seedlings (hypocotyl and root length, root hairs, root cells); type: in vivo, Arabidopsis thaliana; conditions: 3-day-old etiolated eto1-2 seedlings, MS medium with compound (50 μM shown)
# [12] = target: the other four ACO proteins in Arabidopsis (AtACO1, AtACO3, AtACO4 and AtACO5); assay: ACO kinetic analysis, span over the other four ACO proteins; type: biochemical, Arabidopsis thaliana; conditions: span over AtACO1, 3, 4, 5
# Description: as §2
# [13] = target: T4, gibberellin C2 oxidase 2 (GA2OX2) (Arabidopsis thaliana, UniProt Q9XFR9); assay: Isothermal titration calorimetry; type: binding; conditions: ITC
# T4 construct: GST; made in house
# T4 sequence (Q9XFR9 1-341): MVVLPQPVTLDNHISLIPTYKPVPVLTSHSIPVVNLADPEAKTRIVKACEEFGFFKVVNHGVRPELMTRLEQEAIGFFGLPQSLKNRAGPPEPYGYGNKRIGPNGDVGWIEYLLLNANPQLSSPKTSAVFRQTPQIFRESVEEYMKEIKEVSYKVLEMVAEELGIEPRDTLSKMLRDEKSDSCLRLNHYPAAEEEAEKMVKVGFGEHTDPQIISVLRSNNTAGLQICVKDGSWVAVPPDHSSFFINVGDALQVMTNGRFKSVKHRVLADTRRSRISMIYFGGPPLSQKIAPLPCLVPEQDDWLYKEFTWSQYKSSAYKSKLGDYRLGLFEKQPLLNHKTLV
# Description: as §1
# [14] = target: T5, anthocyanidin synthase (ANS) (Arabidopsis thaliana, UniProt Q96323); assay: Isothermal titration calorimetry; type: binding; conditions: ITC
# T5 construct: GST; made in house
# T5 sequence (Q96323 whole entry): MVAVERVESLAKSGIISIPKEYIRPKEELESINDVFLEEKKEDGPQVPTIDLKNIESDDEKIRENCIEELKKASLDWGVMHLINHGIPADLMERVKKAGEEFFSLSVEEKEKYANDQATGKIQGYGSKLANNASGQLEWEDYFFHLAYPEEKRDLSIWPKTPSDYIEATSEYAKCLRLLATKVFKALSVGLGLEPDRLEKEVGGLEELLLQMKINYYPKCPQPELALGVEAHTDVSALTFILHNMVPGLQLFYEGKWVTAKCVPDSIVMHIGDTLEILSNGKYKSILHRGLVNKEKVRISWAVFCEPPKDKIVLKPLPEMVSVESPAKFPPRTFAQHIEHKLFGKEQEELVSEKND
# Description: as §1
smiles,measurement,setting,value
"O=C(O)c1ccccn1 [2-PA, 2-picolinic acid]",ethylene production in Arabidopsis seedlings,[1],remarkably inhibited
same,ethylene production in suspension cultured cells,[2],remarkably inhibited
same,inhibition effect on AtACO2 compared with POA,[3]; 200 μM,stronger than that of POA
same,relative AtACO2 activity treated with POA derivatives,[3]; 200 μM,directly inhibited
same,Kd,[4]; in the presence of Zn2+,2.8 µM
NC(=O)c1ccccn1 [2-picolinamide],ethylene production in Arabidopsis seedlings,[1],remarkably inhibited
same,ethylene production in suspension cultured cells,[2],remarkably inhibited
"CC(C)(N)C(=O)O [AIB, α-aminoisobutyric acid, reference compound]",inhibition effect on AtACO2 compared with POA,[3]; 200 μM,much weaker inhibition effect than POA
"O=C(O)c1cnccn1 [POA, pyrazinecarboxylic acid]",ACC-induced ethylene production of Col-0 seedlings,"[1]; 100 μM ACC, 500 μM compound, 24 h",inhibited
same,stability of purified AtACO2 protein,[5],did not obviously change
same,interaction with DAO,[6],no interaction
same,Ki,[7],722 ± 536 µM
same,Ki,[8],317 ± 90.4 µM
same,Ki,[9],195 ± 73.3 µM
same,Ki,[10],187 ± 54.5 µM
same,short-root and short-hypocotyl phenotype of eto1-2,[11],specifically suppressed
same,Ki,"[3]; Lineweaver–Burk plots, varying ACC, 100, 200 or 300 μM POA, error represents s.d., read-out: Ki, AtACO2 inhibition",89.8 ± 18.3 µM
same,mode of inhibition of ACO,[3]; double-reciprocal plots,competitive inhibitor
same,IC50,"[3]; recombinant AtACO2, ethylene by GC-FID, read-out: IC50, inhibition of AtACO2 activity",72.1 ± 1.11 µM
same,Ki,[12],187 to 722 µM
same,Kd,[4]; in the presence of Fe2+,14.8 µM
same,Kd,[4]; in the presence of Zn2+,10.2 µM
same,interaction with GA2OX2,[13],no interaction
same,interaction with ANS,[14],no interaction
